Data: patent publication US9150519B2, “6-amino-pyrimidine-4-carboxamide derivatives and related compounds which bind to the sphingosine 1-phosphate (S1P) receptor for the treatment of multiple sclerosis” (MERCK SERONO SA, priority 2007, dated 2015)
Blank lines part the entries; values can stand above or below the molecule they belong to.

Columns and labels:
S1P3 = S1P3 (Homo sapiens (Human), UniProt Q99500); test: 35S-GTPγS binding assay, S1P3 membranes; format: biochemical; settings: membranes from CHO cells expressing S1P3; read-out: S1P3 GTPyS EC50
Procedure: (§1) Membranes were prepared from CHO cells expressing S1P1 or S1P3 for use in ligand and […] binding studies. Cells were suspended in 50 mM TRIS, pH 7.4, 2 mM EDTA, 250 mM Sucrose (buffer A) and 1× Complete protease inhibitor cocktail (Roche), and disrupted at 4° C. by nitrogen decompression using a cell disruption bomb (Parr Instrument). Following centrifugation at 1000 RPM for 10 min at 4° C., the supernatant was suspended in buffer A and centrifuged again at 19000 RPM for 60 min at 4° C. The pellet was then suspended in 10 mM HEPES, pH 7.4, 1 mM EDTA, 250 mM Sucrose (Buffer B), and 1× Complete EDTA-free protease inhibitor cocktail and homogenized using a potter. Membranes were flash frozen in liquid nitrogen and stored at −80° C. [33P]sphingosine 1-phosphate (3000 Ci/mmol; American Radiolabeled Chemicals, Inc.) was added to test compounds in DMSO. Membranes and WGA SPA beads (GE Healthcare) were added to give a final volume of 100 μl in 96-well plates with assay concentrations of 25 μM or 10 μM [33P]sphingosine 1-phosphate (respectively for S1P1 or S1P3), 50 mM HEPES, pH 7.5, 5 mM MgCl2, 100 mM NaCl, 0.4% fatty acid-free BSA, 1-5 μg/well of proteins and 100 μg/well of WGA SPA beads. Binding was performed for 60 min at room temperature on a shaker and bound radioactivity was measured on a PerkinElmer 1450 MicroBeta counter. Specific binding was calculated by subtracting remaining radioactivity in the presence of 1000-fold excess of unlabeled S1P. Binding data were analyzed using the GraphPad Prism program.
Measurements of ^35S-GTPγS Binding: Membranes (1 to 10 μg protein) prepared as described above, were incubated in 96-well Scintiplates (PerkinElmer) with test compounds diluted in DMSO, in 180 μl of 20 mM HEPES, pH 7.4, 10 mM MgCl2, 2 μg/well Saponin, 0.2% fatty acid free BSA (Assay buffer), 140 mM NaCl and 1.7 μM GDP. The assay was initiated with the addition of 20 μl of 1.5 nM [35S]-GTPγS (1100 Ci/mmol; GE Healthcare) in assay buffer. After 60 min incubation at 30° C. on a shaker, plates were centrifuged for 10 min at 2000 RPM. Supernatant was discarded and membrane bound radioactivity was measured on a PerkinElmer 1450 MicroBeta counter. Triplicate samples were averaged and expressed as % response relative to SIP activation in absence of compound (n=2).

S1P1 = S1P1 (Homo sapiens (Human), UniProt P21453); test: 35S-GTPγS binding assay, S1P1 membranes; format: biochemical; settings: membranes from CHO cells expressing S1P1; read-out: S1P1 GTPyS EC50
Procedure: as §1, with “Membranes and WGA SPA beads (GE Healthcare) were added to give a final volume of 100 μl in 96-well plates with assay concentrations of 25 μM or 10 μM [33P]sphingosine 1-phosphate (respectively for S1P1 or S1P3), 50 mM HEPES, pH 7.5, 5 mM MgCl2, 100 mM NaCl, 0.4% fatty acid-free BSA, 1-5 μg/well of proteins and 100 μg/well of WGA SPA beads.” left out
The assay was initiated with the addition of 20 μl of 1.5 nM [35S]-GTPγS (1100 Ci/mmol; GE Healthcare) in assay buffer. After 60 min incubation at 30° C. on a shaker, plates were centrifuged for 10 min at 2000 RPM. Supernatant was discarded and membrane bound radioactivity was measured on a PerkinElmer 1450 MicroBeta counter. Triplicate samples were averaged and expressed as % response relative to SIP activation in absence of compound (n=2).

Sequence of S1P3 (Q99500 whole entry, species assumed): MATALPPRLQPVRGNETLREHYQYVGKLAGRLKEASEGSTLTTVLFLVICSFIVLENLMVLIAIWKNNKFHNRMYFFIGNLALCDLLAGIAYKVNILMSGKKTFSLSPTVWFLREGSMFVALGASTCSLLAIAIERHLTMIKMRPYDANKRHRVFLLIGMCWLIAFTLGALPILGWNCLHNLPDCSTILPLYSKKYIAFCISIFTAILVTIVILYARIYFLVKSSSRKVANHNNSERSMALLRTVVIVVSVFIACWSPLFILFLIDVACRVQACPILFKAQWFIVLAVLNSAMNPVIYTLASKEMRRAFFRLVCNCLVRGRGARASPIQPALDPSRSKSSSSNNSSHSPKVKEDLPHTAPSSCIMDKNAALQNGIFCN
Sequence of S1P1 (P21453 whole entry, species assumed): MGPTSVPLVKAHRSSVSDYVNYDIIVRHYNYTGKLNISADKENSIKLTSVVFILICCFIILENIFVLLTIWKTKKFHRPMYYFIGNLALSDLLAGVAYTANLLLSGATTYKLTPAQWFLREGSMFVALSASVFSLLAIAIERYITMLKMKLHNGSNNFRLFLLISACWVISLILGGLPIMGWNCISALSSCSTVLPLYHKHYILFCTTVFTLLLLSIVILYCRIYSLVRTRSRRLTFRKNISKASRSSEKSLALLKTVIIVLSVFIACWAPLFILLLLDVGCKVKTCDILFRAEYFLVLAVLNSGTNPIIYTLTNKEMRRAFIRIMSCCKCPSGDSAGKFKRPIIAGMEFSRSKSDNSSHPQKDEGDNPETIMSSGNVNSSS

SMILES: CCN(c1cc(C(=O)Nc2ccc(O)cc2C)ncn1)C1CCCCC1 [Example 1-25]
EC50 (S1P3): > 30000 nM
EC50 (S1P1): 400 nM

SMILES: CN(c1cc(C(=O)Nc2ccc(O)cc2)ncn1)C1CCCCC1 [Example 1-19]
EC50 (S1P3): > 30000 nM

SMILES: O=C(Nc1ccc(O)cc1C(F)(F)F)c1cc(NC2CCCCC2)ncn1 [Example 1-15]
EC50 (S1P3): > 30000 nM
EC50 (S1P1): 380 nM

SMILES: Cc1cc2[nH]ncc2cc1NC(=O)c1cc(N(CC2CC2)C2CCCCC2)ncn1 [Example 1-47]
EC50 (S1P3): 3270 nM
EC50 (S1P1): 6 nM

SMILES: CCCN(CCC)c1cc(C(=O)Nc2ccc(S(N)(=O)=O)cc2C)ncn1 [Example 1-57]
EC50 (S1P3): > 20000 nM
EC50 (S1P1): 36 nM

SMILES: CCCN(CCC)c1cc(C(=O)Nc2ccc(O)cc2)ncn1 [Example 1-22]
EC50 (S1P3): 2320 nM
EC50 (S1P1): 370 nM

SMILES: Cc1cc(S(N)(=O)=O)ccc1NC(=O)c1cc(N(C)C2CCCCC2)ncn1 [Example 1-29]
EC50 (S1P3): > 30000 nM
EC50 (S1P1): 65 nM

SMILES: O=C(Nc1ccnc2ccccc12)c1cc(NC2CCCCC2)ncn1 [Example 1-16]
EC50 (S1P3): 5230 nM
EC50 (S1P1): 1070 nM

SMILES: Cc1cc2[nH]ncc2cc1NC(=O)c1cc(N(C)C2CCCCC2)ncn1 [Example 1-39]
EC50 (S1P3): 2330 nM
EC50 (S1P1): 211 nM

SMILES: O=C(Nc1ccc2[nH]ncc2c1)c1cc(NC2CCCCC2)ncn1 [Example 1-28]
EC50 (S1P3): > 30000 nM

SMILES: O=C(Nc1ccc(O)cc1Cl)c1cc(NC2CCCCC2)ncn1 [Example 1-8]
EC50 (S1P3): > 30000 nM

SMILES: O=C(Nc1ccc(O)cc1F)c1cc(NC2CCCCC2)ncn1 [Example 1-7]
EC50 (S1P3): > 30000 nM

SMILES: CCCN(c1cc(C(=O)Nc2ccc(S(N)(=O)=O)cc2C)ncn1)C1CCCCC1 [Example 1-54]
EC50 (S1P3): 1990 nM
EC50 (S1P1): 2.9 nM

SMILES: Cc1cc(O)ccc1NC(=O)c1cc(OC2CCCCC2)ncn1 [Example 1-34]
EC50 (S1P3): > 20000 nM
EC50 (S1P1): 132 nM

SMILES: CN(c1cc(C(=O)Nc2ccc(S(=O)(=O)NCC(O)CO)cc2)ncn1)C1CCCCC1 (stereo not shown) [Example 1-40]
EC50 (S1P3): > 20000 nM
EC50 (S1P1): 1520 nM

SMILES: O=C(Nc1ccc(O)c2ccccc12)c1cc(NC2CCCCC2)ncn1 [Example 1-5]
EC50 (S1P3): > 30000 nM

SMILES: O=C(Nc1ccc2[nH]ncc2c1)c1cc(N(CC2CC2)C2CCCCC2)ncn1 [Example 1-44]
EC50 (S1P3): > 20000 nM
EC50 (S1P1): 9 nM

SMILES: Cc1cc(O)ccc1NC(=O)c1cc(N(CC2CC2)C2CCCCC2)ncn1 [Example 1-33]
EC50 (S1P3): 100000 nM
EC50 (S1P1): 24.6 nM

SMILES: CCCN(CC1CC1)c1cc(C(=O)Nc2ccc3[nH]ncc3c2)ncn1 [Example 1-45]
EC50 (S1P3): 416 nM
EC50 (S1P1): 13 nM

SMILES: O=C(Nc1ccc(O)cc1)c1cc(OC2CCCCC2)ncn1 [Example 1-26]
EC50 (S1P3): > 30000 nM
EC50 (S1P1): 240 nM

SMILES: CCC(C)Oc1cc(C(=O)Nc2ccc(O)cc2C)ncn1 (stereo not shown) [Example 1-36]
EC50 (S1P3): > 20000 nM
EC50 (S1P1): 2920 nM

SMILES: CCCN(CC1CC1)c1cc(C(=O)Nc2ccc(S(N)(=O)=O)cc2C)ncn1 [Example 1-56]
EC50 (S1P3): > 20000 nM

SMILES: Cc1cc(S(N)(=O)=O)ccc1NC(=O)c1cc(NC2CCCCC2)ncn1 [Example 1-18]
EC50 (S1P3): > 30000 nM
EC50 (S1P1): 440 nM

SMILES: O=C(Nc1ccnc2ccccc12)c1cc(N(CC2CC2)C2CCCCC2)ncn1 [Example 1-46]
EC50 (S1P3): 1160 nM
EC50 (S1P1): 19 nM

SMILES: Cc1cc(S(N)(=O)=O)ccc1NC(=O)c1cc(N(CC(C)C)C2CCCC2)ncn1 [Example 1-58]
EC50 (S1P3): > 20000 nM
EC50 (S1P1): 39 nM

SMILES: Cc1cc(S(N)(=O)=O)ccc1NC(=O)c1cc(N(CC2CC2)C2CCCCC2)ncn1 [Example 1-38]
EC50 (S1P3): 47500 nM
EC50 (S1P1): 2 nM

SMILES: O=C(Nc1ccc(CCO)cc1)c1cc(NC2CCCCC2)ncn1 [Example 1-52]
EC50 (S1P3): > 30000 nM

SMILES: CS(=O)(=O)Nc1ccc(NC(=O)c2cc(NC3CCCCC3)ncn2)cc1 [Example 1-13]
EC50 (S1P3): > 30000 nM

SMILES: O=C(Nc1ccc(O)cc1)c1cc(NC2CCCCC2)ncn1 [Example 1-53]
EC50 (S1P3): > 30000 nM

SMILES: Cc1cc(O)ccc1NC(=O)c1cc(NC2CCCCC2)ncn1 [Example 1-1]
EC50 (S1P3): > 30000 nM

SMILES: CN(c1cc(C(=O)Nc2ccnc3ccccc23)ncn1)C1CCCCC1 [Example 1-43]
EC50 (S1P1): 1350 nM

Second part, the molecule after the results:

EC50 (S1P3): 1310 nM
SMILES: Cc1cc(S(=O)(=O)NCCCC(=O)O)ccc1NC(=O)c1cc(N(CC2CC2)C2CCCCC2)ncn1 [Example 1-63]

EC50 (S1P3): 62 nM
SMILES: Cc1cc(S(=O)(=O)NCCC(=O)O)ccc1NC(=O)c1cc(N(CC2CC2)C2CCCCC2)ncn1 [Example 1-62]

EC50 (S1P3): > 20000 nM
EC50 (S1P1): 51 nM
SMILES: CCCN(c1cc(C(=O)Nc2ccc(S(N)(=O)=O)cc2C)ncn1)C(C)C [Example 1-60]

EC50 (S1P3): 2470 nM
EC50 (S1P1): 5.8 nM
SMILES: CNS(=O)(=O)c1ccc(NC(=O)c2cc(N(CC3CC3)C3CCCCC3)ncn2)c(C)c1 [Example 1-105]

EC50 (S1P3): 236 nM
SMILES: O=C(Nc1ccc(CN2CC(C(=O)O)C2)cc1)c1cc(N(CC2CC2)C2CCCCC2)ncn1 [Example 1-84]

EC50 (S1P3): > 20000 nM
EC50 (S1P1): 63 nM
SMILES: CCCN(CC1CC1)c1cc(C(=O)Nc2ccc(S(=O)(=O)NC)cc2C)ncn1 [Example 1-109]

EC50 (S1P3): > 20000 nM
EC50 (S1P1): 6 nM
SMILES: O=C(Nc1cccc2[nH]ccc12)c1cc(N(CC2CC2)C2CCCCC2)ncn1 [Example 1-126]

EC50 (S1P3): > 20000 nM
SMILES: CCCN(CC1CC1)c1cc(C(=O)Nc2ccc(CNCC(=O)O)cc2C)ncn1 [Example 1-100]

EC50 (S1P3): 5650 nM
SMILES: CCCN(CC1CC1)c1cc(C(=O)Nc2ccc(S(=O)(=O)NCCC(=O)O)cc2C)ncn1 [Example 1-99]

EC50 (S1P3): > 20000 nM
SMILES: CCCN(CC1CC1)c1cc(C(=O)Nc2cccc3[nH]ccc23)ncn1 [Example 1-113]

EC50 (S1P3): > 20000 nM
EC50 (S1P1): 48 nM
SMILES: O=C(Nc1cccc2[nH]ncc12)c1cc(N(CC2CC2)C2CCCCC2)ncn1 [Example 1-127]

EC50 (S1P3): > 20000 nM
EC50 (S1P1): 12 nM
SMILES: CCCN(CC1CC1)c1cc(C(=O)Nc2cc3cn[nH]c3cc2C)ncn1 [Example 1-71]

EC50 (S1P3): > 20000 nM
SMILES: CCCN(CC1CC1)c1cc(C(=O)Nc2ccc(CO)cc2C)ncn1 [Example 1-85]

EC50 (S1P3): 777 nM
EC50 (S1P1): 48 nM
SMILES: COC(=O)CCNCc1ccc(NC(=O)c2cc(N(CC3CC3)C3CCCCC3)ncn2)cc1 [Example 1-76]

EC50 (S1P1): 145 nM
SMILES: CCCN(CC1CC1)c1cc(C(=O)Nc2ccc3c(c2)CCNC3)ncn1 [Example 1-91]

EC50 (S1P1): 567 nM
SMILES: CCCN(CC1CC1)c1cc(C(=O)Nc2ccc(CNC)cc2C)ncn1 [Example 1-111]

EC50 (S1P3): 666 nM
SMILES: CC(C)CN(c1cc(C(=O)Nc2ccc3[nH]ncc3c2)ncn1)C1CCCC1 [Example 1-69]

EC50 (S1P1): 604 nM
SMILES: CCCN(CC1CC1)c1cc(C(=O)Nc2ccc(N3CCOCC3)c(F)c2)ncn1 [Example 1-151]

EC50 (S1P1): 202 nM
SMILES: CCCN(CC1CC1)c1cc(C(=O)Nc2ccc(S(=O)(=O)NCCOC)cc2C)ncn1 [Example 1-106]

EC50 (S1P1): 1160 nM
SMILES: COC(=O)C(C)(C)NCc1ccc(NC(=O)c2cc(N(CC3CC3)C3CCCCC3)ncn2)cc1 [Example 1-83]

EC50 (S1P1): 236 nM
SMILES: CCCN(CC1CC1)c1cc(C(=O)Nc2ccc3c(c2)CNCC3)ncn1 [Example 1-92]

EC50 (S1P1): 5050 nM
SMILES: CCCN(CC1CC1)c1cc(C(=O)Nc2ccc(CS(=O)(=O)CCC(=O)OCC)cc2)ncn1 [Example 1-119]

EC50 (S1P1): 193 nM
SMILES: CS(=O)(=O)c1ccc(NC(=O)c2cc(N(CC3CC3)C3CCCCC3)ncn2)cc1 [Example 1-112]

EC50 (S1P1): 68 nM
SMILES: CCCN(c1cc(C(=O)Nc2ccc3[nH]ncc3c2)ncn1)C(C)C [Example 1-67]
